According to patent publication US4150029A, “3-Aryl 2-oxazolidinones, their process of preparation and their therapeutical application” (Delalande S.A., priority 1976, dated 1979):
Read-outs that look alike come from different tables or passages of the source.

Columns and labels:
[1] = system: generalised trembling caused by an intraperitoneal injection of dl-5-hydroxytryptophane; assay: Test A: potentiation of generalised trembling caused by dl-5-hydroxytryptophane in the mouse; format: in vivo; details: po, read-out: Test A 50 DE
Experimental: Potentiation in a mouse of generalised trembling caused by an intraperitoneal injection (200 mg/kg) of dl-5-hydroxytryptophane, according to the mode of operation described by GOURET C. and RAYNAUD G. in the J. Pharmacol. (PARIS), (1974), 5, 231.

[2] = system: ptosis observed one hour after an intravenous injection of reserpine; assay: Test B: antagonism of reserpine-induced ptosis in the mouse; format: in vivo; details: po, 1 h, p.o., reserpine 2 mg/kg i.v., read-out: Test B 50 DE
Experimental: Antagonism in relation to ptosis observed one hour after an intravenous injection (2 mg/kg) of reserpine was given to a mouse, according to the mode of operation described by GOURET C. and THOMAS J. in J. Pharmacol. (PARIS), (1973), 4, 401.

[3] = system: pontogeniculo-occipital points (P.G.O.) caused by reserpine; assay: Test C: diminution in density of reserpine-induced pontogeniculo-occipital (P.G.O.) points in the cat; format: in vivo; details: Felis catus, po, reserpine 0.5 mg/kg, read-out: Test C 50 DE
Experimental: Diminution in the density of pontogeniculo-occipital points (P.G.O.) caused by injecting a cat with 0.5 mg/kg of reserpine, according to the mode of operation described by COSTON A. and GOURET C. in J. Pharmacol. (PARIS), (1976), 7, 409.

[4] = Acute toxicity in mice; details: mouse, in vivo, po; for LD50: acute toxicity, read-out: 50 DL
[5] = mouse, p.o., dl-5-hydroxytryptophane 200 mg/kg i.p.

SMILES | ED50 [1, 5] | ED50 [2] | ED50 [3] | LD50 [4] | ED50 ([1]; Mus musculus) | mortality ([4]; dose administered 2000 mg/kg/p.o.) | mortality ([4]; dose administered 1000 mg/kg/p.o.)
Cc1cccc(N2CC(CO)OC2=O)c1 (stereo not drawn) [TOLOXATONE, reference compound] | 60 mg/kg | 50 mg/kg | 28 mg/kg | 1850 mg/kg | – | – | –
O=C1OC(CO)CN1c1cccc([N+](=O)[O-])c1 (stereo not drawn) [compound 740511, 5-hydroxymethyl-3-metanitrophenyl-2 oxazolidinone] | 55 mg/kg | 17 mg/kg | 40 mg/kg | – | – | – | –
CCc1cccc(N2CC(CO)OC2=O)c1 (stereo not drawn) [compound 740512] | 68 mg/kg | 32 mg/kg | 50 mg/kg | – | – | – | –
O=C1OC(CO)CN1c1ccc([N+](=O)[O-])cc1 (stereo not drawn) [compound 740564] | 38 mg/kg | 42 mg/kg | 16 mg/kg | > 1000 mg/kg | – | – | –
CNC(=O)OCC1CN(c2cccc(C(F)(F)F)c2)C(=O)O1 (stereo not drawn) [compound 740704] | – | 12 mg/kg | 52 mg/kg | – | 42 mg/kg | 0% | –
CC(C)NC(=O)OCC1CN(c2cccc(C(F)(F)F)c2)C(=O)O1 (stereo not drawn) [compound 740711] | 19 mg/kg | 26 mg/kg | – | – | – | – | 0%
Cc1ccc(N2CC(CO)OC2=O)cc1C (stereo not drawn) [compound 750341] | 100 mg/kg | 41 mg/kg | 22 mg/kg | – | – | – | –
O=C1OC(CO)CN1c1cccc(Br)c1 (stereo not drawn) [compound 750710] | 62 mg/kg | 100 mg/kg | 14 mg/kg | – | – | – | –
CCOc1ccc(N2CC(COC(=O)NC)OC2=O)cc1 (stereo not drawn) [compound 760104] | – | 44 mg/kg | > 50 mg/kg | – | 48 mg/kg | – | –
CC(C)Oc1ccc(N2CC(CO)OC2=O)cc1 (stereo not drawn) [compound 760116] | 60 mg/kg | 50 mg/kg | 15 mg/kg | – | – | – | –
CN(C)c1ccc(N2CC(CO)OC2=O)cc1 (stereo not drawn) [compound 760133] | 11 mg/kg | 7.2 mg/kg | 4.5 mg/kg | – | – | – | –
CCCOc1ccc(N2CC(CO)OC2=O)cc1 (stereo not drawn) [compound 760303] | 9 mg/kg | 14 mg/kg | 6.9 mg/kg | – | – | – | –
C=CCOc1ccc(N2CC(CO)OC2=O)cc1 (stereo not drawn) [compound 760306] | 14 mg/kg | 29 mg/kg | 2.5 mg/kg | – | – | – | –
C#CCOc1ccc(N2CC(CO)OC2=O)cc1 (stereo not drawn) [compound 760307] | 8 mg/kg | 14 mg/kg | 5 mg/kg | – | – | – | –
CCN(CC)c1ccc(N2CC(CO)OC2=O)cc1 (stereo not drawn) [compound 760311] | 27 mg/kg | 32 mg/kg | 9 mg/kg | – | – | – | –
O=C1OC(CO)CN1c1ccc(OC2CCCCC2)cc1 (stereo not drawn) [compound 760314] | 19 mg/kg | 18 mg/kg | 12 mg/kg | – | – | – | –
O=C1OC(CO)CN1c1ccc(OCCc2ccccc2)cc1 (stereo not drawn) [compound 760317] | 25 mg/kg | 17 mg/kg | 45 mg/kg | – | – | – | –
O=C1OC(CO)CN1c1ccc(OCc2ccc(Cl)cc2)cc1 (stereo not drawn) [compound 760337] | 6 mg/kg | 5 mg/kg | 120 mg/kg | – | – | – | –
CN(Cc1ccccc1)c1ccc(N2CC(CO)OC2=O)cc1 (stereo not drawn) [compound 760375, 5-hydroxymethyl 3-p-N-benzyl N-methylaminophenyl 2-oxazolidinone] | 39 mg/kg | 28 mg/kg | 160 mg/kg | – | – | – | –

SMILES | ED50 [1, 5] | ED50 [2] | ED50 [3] | LD50 [4] | ED50 ([1]; Mus musculus) | mortality ([4]; dose administered 2000 mg/kg/p.o.) | mortality ([4]; dose administered 1000 mg/kg/p.o.)
CNc1ccc(N2CC(CO)OC2=O)cc1 (stereo not drawn) [compound 760395, 5-hydroxymethyl 3-p-N-methylaminophenyl 2-oxazolidinone] | 39 mg/kg | 28 mg/kg | 160 mg/kg | – | – | – | –
CCCCCOc1ccc(N2CC(CO)OC2=O)cc1 (stereo not drawn) [compound 760396] | 12 mg/kg | 1.4 mg/kg | 20 mg/kg | – | – | – | –
CNC(=O)OCC1CN(c2ccc(OCc3ccccc3)cc2)C(=O)O1 (stereo not drawn) [compound 760409] | – | 7 mg/kg | > 50 mg/kg | – | 100 mg/kg | – | –
CC(C)COc1ccc(N2CC(CO)OC2=O)cc1 (stereo not drawn) [compound 760414] | 13 mg/kg | 3 mg/kg | 5.5 mg/kg | – | – | – | –
O=C1OC(CO)CN1c1ccc(OCc2ccc(F)cc2)cc1 (stereo not drawn) [compound 760432] | 3.8 mg/kg | 2 mg/kg | 24 mg/kg | – | – | – | –
O=C1OC(CO)CN1c1ccc(OCc2cccc(F)c2)cc1 (stereo not drawn) [compound 760453] | 5.5 mg/kg | 7 mg/kg | 11.6 mg/kg | – | – | – | –
CCSc1ccc(N2CC(CO)OC2=O)cc1 (stereo not drawn) [compound 760466] | 40 mg/kg | 32 mg/kg | 8.25 mg/kg | – | – | – | –
CCCCSc1ccc(N2CC(CO)OC2=O)cc1 (stereo not drawn) [compound 760473] | 41 mg/kg | 22 mg/kg | 11.5 mg/kg | – | – | – | –
O=C1OC(CO)CN1c1ccc(N2CCCC2)cc1 (stereo not drawn) [compound 760474] | 42 mg/kg | 68 mg/kg | 14 mg/kg | – | – | – | –
Cc1cccc(COc2ccc(N3CC(CO)OC3=O)cc2)c1 (stereo not drawn) [compound 760533] | 41 mg/kg | 54 mg/kg | 51 mg/kg | – | – | – | –
C=C(C)COc1ccc(N2CC(CO)OC2=O)cc1 (stereo not drawn) [compound 760535] | 28 mg/kg | 50 mg/kg | 5.1 mg/kg | – | – | – | –
C=CCCOc1ccc(N2CC(CO)OC2=O)cc1 (stereo not drawn) [compound 760536] | 8.6 mg/kg | 15 mg/kg | 6.3 mg/kg | – | – | – | –
Cc1ccccc1COc1ccc(N2CC(CO)OC2=O)cc1 (stereo not drawn) [compound 760537] | 35 mg/kg | 17 mg/kg | 37.5 mg/kg | – | – | – | –
O=C1OC(CO)CN1c1ccc(OCc2cccc(Cl)c2)cc1 (stereo not drawn) [compound 760548] | 4.4 mg/kg | 3.4 mg/kg | 33.5 mg/kg | – | – | – | –
CCCCCCOc1ccc(N2CC(CO)OC2=O)cc1 (stereo not drawn) [compound 760549] | 26 mg/kg | 11 mg/kg | 85 mg/kg | – | – | – | –
O=C1OC(CO)CN1c1ccc(OCc2cccc(C(F)(F)F)c2)cc1 (stereo not drawn) [compound 760556] | 5 mg/kg | 3.2 mg/kg | 14.1 mg/kg | – | – | – | –
O=C1OC(CO)CN1c1ccc(OCc2ccc(Br)cc2)cc1 (stereo not drawn) [compound 760574] | 21 mg/kg | 22 mg/kg | > 50 mg/kg | – | – | – | –
CCCSc1ccc(N2CC(CO)OC2=O)cc1 (stereo not drawn) [compound 760600] | 19 mg/kg | 15.4 mg/kg | 6.26 mg/kg | – | – | – | –
O=C1OC(CO)CN1c1ccc(SC2CCCCC2)cc1 (stereo not drawn) [compound 760621] | 100 mg/kg | 42 mg/kg | 40 mg/kg | – | – | – | –

SMILES | ED50 [1, 5] | ED50 [2] | ED50 [3] | LD50 [4] | ED50 ([1]; Mus musculus) | mortality ([4]; dose administered 2000 mg/kg/p.o.) | mortality ([4]; dose administered 1000 mg/kg/p.o.)
O=C1OC(CO)CN1c1ccc(OCc2ccc([N+](=O)[O-])cc2)cc1 (stereo not drawn) [compound 760622] | 5.5 mg/kg | 2.1 mg/kg | 40 mg/kg | – | – | – | –
CC(C)=CCOc1ccc(N2CC(CO)OC2=O)cc1 (stereo not drawn) [compound 760650] | 25.5 mg/kg | 3.4 mg/kg | 7.03 mg/kg | – | – | – | –
N#CCOc1ccc(N2CC(CO)OC2=O)cc1 (stereo not drawn) [compound 760651, 5-hydroxymethyl 3-p-cyanomethyloxyphenyl 2-oxazolidinone] | 5.5 mg/kg | 2.5 mg/kg | 1.5 mg/kg | – | – | – | –
CC(=O)COc1ccc(N2CC(CO)OC2=O)cc1 (stereo not drawn) [compound 760652] | 7.1 mg/kg | 2.8 mg/kg | 13 mg/kg | – | – | – | –
C#CCOc1ccc(N2CC(COC(=O)NC)OC2=O)cc1 (stereo not drawn) [compound 760658] | – | 27 mg/kg | 13.9 mg/kg | – | > 12.5 mg/kg | – | –
CNC(=O)OCC1CN(c2ccc(OCC#N)cc2)C(=O)O1 (stereo not drawn) [compound 760660, 5-N-methylcarbamoyloxymethyl 3-p-cyanomethyloxyphenyl 2-oxazolidinone] | – | 31 mg/kg | 12.3 mg/kg | – | > 12.5 mg/kg | – | –
CCCCOc1ccc(N2CC(COC(=O)NC)OC2=O)cc1 (stereo not drawn) [compound 760662] | – | 17.5 mg/kg | 23 mg/kg | – | 48 mg/kg | – | –
CC(=O)c1ccc(N2CC(CO)OC2=O)cc1 (stereo not drawn) [compound 760670] | 21 mg/kg | 10 mg/kg | 14 mg/kg | – | – | – | –
CNC(=O)OCC1CN(c2ccc(OCc3ccc([N+](=O)[O-])cc3)cc2)C(=O)O1 (stereo not drawn) [compound 760676] | – | 6.25 mg/kg | 22 mg/kg | – | > 12.5 mg/kg | – | –
CNC(=O)OCC1CN(c2ccc(OCC(C)C)cc2)C(=O)O1 (stereo not drawn) [compound 760712] | – | 25 mg/kg | 35 mg/kg | – | 48 mg/kg | – | –
CNC(=O)OCC1CN(c2ccc(OCc3ccc(F)cc3)cc2)C(=O)O1 (stereo not drawn) [compound 760717] | – | 12.5 mg/kg | > 50 mg/kg | – | > 12.5 mg/kg | – | –
CC(C)NC(=O)OCC1CN(c2ccc(OCc3ccccc3)cc2)C(=O)O1 (stereo not drawn) [compound 760723] | > 50 mg/kg | 17.5 mg/kg | > 50 mg/kg | – | – | – | –
CNC(=O)OCC1CN(c2ccc(OCc3cccc(Cl)c3)cc2)C(=O)O1 (stereo not drawn) [compound 760729] | – | 23 mg/kg | 50 mg/kg | – | > 12.5 mg/kg | – | –
CNC(=O)OCC1CN(c2ccc(C(C)=O)cc2)C(=O)O1 (stereo not drawn) [compound 760731] | – | 15 mg/kg | 17.5 mg/kg | – | > 25 mg/kg | – | –
CNC(=O)OCC1CN(c2ccc(SC)cc2)C(=O)O1 (stereo not drawn) [compound 760786] | – | 40 mg/kg | 25.5 mg/kg | – | > 50 mg/kg | – | –
C/C=C/COc1ccc(N2CC(CO)OC2=O)cc1 (stereo not drawn) [compound 760827] | 15 mg/kg | 10 mg/kg | 5.2 mg/kg | – | – | – | –
CC#CCOc1ccc(N2CC(CO)OC2=O)cc1 (stereo not drawn) [compound 760877] | 25 mg/kg | 25 mg/kg | 5.6 mg/kg | – | – | – | –
N#Cc1ccc(COc2ccc(N3CC(CO)OC3=O)cc2)cc1 (stereo not drawn) [compound 760881] | 12.5 mg/kg | 5 mg/kg | 29 mg/kg | – | – | – | –
